Data as given in patent US9663530B2, “5-oxa-2-azabicyclo[2.2.2]OCTAN-4-yl and 5-oxa-2-azabicyclo[2.2.1]heptan-4-yl derivatives” (Hoffmann-La Roche Inc., priority 2014, dated 2017).

Key:
mouse TAAR1 = mouse TAAR1 (Mus musculus (Mouse), UniProt Q923Y8); assay: Radioligand binding assay on mouse TAAR1; settings: mouse TAAR1 (first value of the cell); membranes of HEK-293 cells stably expressing mouse TAAR1; read-out: Ki (μM) mouse/rat
Experimental: (§1) Construction of TAAR Expression Plasmids and Stably Transfected Cell Lines
(§2) For the construction of expression plasmids the coding sequences of human, rat and mouse TAAR 1 were amplified from genomic DNA essentially as described by Lindemann et al.. The Expand High Fidelity PCR System (Roche Diagnostics) was used with 1.5 mM Mg^2+ and purified PCR products were cloned into pCR2.1-TOPO cloning vector (Invitrogen) following the instructions of the manufacturer. PCR products were subcloned into the pIRESneo2 vector (BD Clontech, Palo Alto, Calif.), and expression vectors were sequence verified before introduction in cell lines.
(§3) HEK293 cells (ATCC # CRL-1573) were cultured essentially as described by Lindemann et al. (2005). For the generation of stably transfected cell lines HEK293 cells were transfected with the pIRESneo2 expression plasmids containing the TAAR coding sequences (described above) with Lipofectamine 2000 (Invitrogen) according to the instructions of the manufacturer, and 24 hrs post transfection the culture medium was supplemented with 1 mg/ml G418 (Sigma, Buchs, Switzerland). After a culture period of about 10 d clones were isolated, expanded and tested for responsiveness to trace amines (all compounds purchased from Sigma) with the cAMP Biotrak Enzyme immunoassay (EIA) System (Amersham) following the non-acetylation EIA procedure provided by the manufacturer.
Radioligand Binding Assay on Mouse TAAR1
(§4) Membrane Preparation and Radioligand Binding.
HEK-293 cells stably expressing mouse TAAR1 were maintained at 37° C. and 5% CO2 in DMEM high glucose medium, containing fetal calf serum (10%, heat inactivated for 30 min at 56° C.), penicillin/streptomycin (1%), and 375 μg/ml geneticin (Gibco). Cells were released from culture flasks using trypsin/EDTA, harvested, washed twice with ice-cold PBS (without Ca^2+and Mg^2+), pelleted at 1,000 rpm for 5 min at 4° C., frozen and stored at −80° C. Frozen pellets were suspended in 20 ml HEPES-NaOH (20 mM, pH 7.4) containing 10 mM EDTA and homogenized with a Polytron (PT 6000, Kinematica) at 14,000 rpm for 20 s. The homogenate was centrifuged at 48,000×g for 30 min at 4° C. Subsequently, the supernatant was removed and discarded, and the pellet resuspended in 20 ml HEPES-NaOH (20 mM, pH 7.4) containing 0.1 mM EDTA using the Polytron (20 s at 14,000 rpm). This procedure was repeated and the final pellet resuspended in HEPES-NaOH containing 0.1 mM EDTA and homogenized using the Polytron. Typically, aliquots of 2 ml membrane portions were stored at −80° C. With each new membrane batch the dissociation constant (Kd) was determined via a saturation curve. The TAAR1 radioligand ^3[H]-(S)-4-[(ethyl-phenyl-amino)-methyl]-4,5-dihydro-oxazol-2-ylamine (described in WO 2008/098857) was used at a concentration equal to the calculated Kd value, that was usually around 0.7 nM, resulting in the binding of approximately 0.5% of the radioligand and a specific binding representing approximately 70% of the total binding. Nonspecific binding was defined as the amount of ^3[H]-(S)-4-[(ethyl-phenyl-amino)-methyl]-4,5-dihydro-oxazol-2-ylamine bound in the presence of 10 μM unlabeled ligand. All compounds were tested at a broad range of concentrations ([…]) in duplicates. The test compounds (20 […]μl/well) were transferred into a 96 deep well plate (TreffLab), and 180 μl of HEPES-NaOH (20 mM, pH 7.4) containing MgCl2 (10 mM) and CaCl2 (2 mM) (binding buffer), 300 μl of the radioligand ^3[H]-(S)-4-[(ethyl-phenyl-amino)-methyl]-4,5-dihydro-oxazol-2-ylamine at a concentration of 3.3×Kd in nM and 500 μl of the membranes (resuspended at […]) added. The 96 deep well plates were incubated for 1 hr at 4° C. Incubations were terminated by rapid filtration through Unifilter-96 plates (Packard Instrument Company) and glass filters GF/C (Perkin Elmer) presoaked for 1 hr in polyethylenimine (0.3%) and washed 3 times with 1 ml of cold binding buffer. […]

rat TAAR1 = rat TAAR1 (Rattus norvegicus (Rat), UniProt Q923Y9); assay: Radioligand binding assay on rat TAAR1; settings: rat TAAR1 (second value of the cell); membranes of HEK-293 cells stably expressing rat TAAR1; read-out: Ki (μM) mouse/rat
rat TAAR1, sequence (Q923Y9 whole entry): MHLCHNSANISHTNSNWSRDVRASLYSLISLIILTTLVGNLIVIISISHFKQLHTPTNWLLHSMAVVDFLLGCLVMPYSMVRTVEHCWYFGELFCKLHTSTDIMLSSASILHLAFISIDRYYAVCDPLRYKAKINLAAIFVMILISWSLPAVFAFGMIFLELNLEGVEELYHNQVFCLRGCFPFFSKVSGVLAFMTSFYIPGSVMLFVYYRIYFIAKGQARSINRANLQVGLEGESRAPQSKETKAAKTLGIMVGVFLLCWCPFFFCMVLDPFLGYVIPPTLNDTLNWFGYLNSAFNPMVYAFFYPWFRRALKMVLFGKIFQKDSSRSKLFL
Experimental: as §1, §2, §3
Radioligand Binding Assay on Rat TAAR1
as §4
HEK-293 cells stably expressing rat TAAR1 were maintained at 37° C. and 5% CO2 in DMEM high glucose medium, containing fetal calf serum (10%, heat inactivated for 30 min at 56° C.), penicillin/streptomycin (1%), and 375 μg/ml geneticin (Gibco). Cells were released from culture flasks using trypsin/EDTA, harvested, washed twice with ice-cold PBS (without Ca^2+ and Mg^2+), pelleted at 1,000 rpm for 5 min at 4° C., frozen and stored at −80° C. Frozen pellets were suspended in 20 ml HEPES-NaOH (20 mM, pH 7.4) containing 10 mM EDTA and homogenized with a Polytron (PT 6000, Kinematica) at 14,000 rpm for 20 s. The homogenate was centrifuged at 48,000×g for 30 min at 4° C. Subsequently, the supernatant was removed and discarded, and the pellet resuspended in 20 ml HEPES-NaOH (20 mM, pH 7.4) containing 0.1 mM EDTA using the Polytron (20 s at 14,000 rpm). This procedure was repeated and the final pellet resuspended in HEPES-NaOH containing 0.1 mM EDTA and homogenized using the Polytron. Typically, aliquots of 2 ml membrane portions were stored at −80° C. With each new membrane batch the dissociation constant (Kd) was determined via a saturation curve. […] Nonspecific binding was defined as the amount of ^3[H]-(S)-4-[(ethyl-phenyl-amino)-methyl]-4,5-dihydro-oxazol-2-ylamine bound in the presence of 10 μM unlabeled ligand. All compounds were tested at a broad range of concentrations ([…]) in duplicates. The test compounds (20 […]μl/well) were transferred into a 96 deep well plate (TreffLab), and 180 μl of HEPES-NaOH (20 mM, pH 7.4) containing MgCl2 (10 mM) and CaCl2 (2 mM) (binding buffer), 300 μl of the radioligand ^3[H]-(S)-4-[(ethyl-phenyl-amino)-methyl]-4,5-dihydro-oxazol-2-ylamine at a concentration of 3.3×Kd in nM and 500 μl of the membranes (resuspended at 50 μg protein per ml) added. The 96 deep well plates were incubated for 1 hr at 4° C. Incubations were terminated by rapid filtration through Unifilter-96 plates (Packard Instrument Company) and glass filters GF/C (Perkin Elmer) presoaked for 1 hr in polyethylenimine (0.3%) and washed 3 times with 1 ml of cold binding buffer. After addition of 45 μl of Microscint 40 (PerkinElmer) the Unifilter-96 plate was sealed and after 1 hr the ratioactivity counted using a TopCount Microplate Scintillation Counter (Packard Instrument Company).

mouse TAAR1, sequence (Q923Y8 whole entry): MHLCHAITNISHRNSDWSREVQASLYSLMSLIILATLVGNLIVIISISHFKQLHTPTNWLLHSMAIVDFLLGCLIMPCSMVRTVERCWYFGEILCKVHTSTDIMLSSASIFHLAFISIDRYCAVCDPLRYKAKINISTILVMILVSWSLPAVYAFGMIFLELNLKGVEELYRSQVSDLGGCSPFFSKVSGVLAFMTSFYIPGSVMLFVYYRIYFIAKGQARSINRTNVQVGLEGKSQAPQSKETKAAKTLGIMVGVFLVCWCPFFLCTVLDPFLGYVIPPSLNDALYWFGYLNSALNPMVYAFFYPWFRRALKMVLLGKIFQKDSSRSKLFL

Ki (mouse TAAR1) [µM]	Ki (rat TAAR1) [µM]	Structure (SMILES)
0.0304	0.624	O=C(Nc1ccc(C23CCC(CO2)NC3)cc1)c1ccc(OCC(F)(F)F)nc1 (racemic) [Example 13, (RS)—N-[4-(5-Oxa-2-azabicyclo[2.2.2]octan-4-yl)phenyl]-6-(2,2,2-trifluoroethoxy)pyridine-3-carboxamide]
1.82	1150	O=C(Nc1ccc(Cl)cc1)Nc1ccc(C[C@]23CN[C@H](CO2)C3)cc1 [Example 1, 1-(4-Chlorophenyl)-3-[4-[[(1S,4S)-5-oxa-2-azabicyclo[2.2.1]heptan-4-yl]methyl]phenyl]urea]
0.0774	0.324	O=C(Nc1ccc(C[C@@]23CN[C@@H](CO2)C3)cc1)c1cnc(C2CC2)nc1 [Example 51, 2-Cyclopropyl-N-[4-[[(1R,4R)-5-oxa-2-azabicyclo[2.2.1]heptan-4-yl]methyl]phenyl]pyrimidine-5-carboxamide]
0.0137	0.0263	O=C(Nc1ccc(C(F)(F)F)cc1)Nc1ccc(C23CCC(CO2)NC3)cc1 (racemic) [Example 67, (RS)-1-[4-(5-Oxa-2-azabicyclo[2.2.2]octan-4-yl)phenyl]-3-[4-(trifluoromethyl)phenyl]urea]
1.14	0.441	CCOc1ccc(C(=O)Nc2ccc(C[C@]34CN[C@H](CO3)C4)cc2)cn1 [Example 26, 6-Ethoxy-N-[4-[[(1S,4S)-5-oxa-2-azabicyclo[2.2.1]heptan-4-yl]methyl]phenyl]pyridine-3-carboxamide]
0.0137	0.0375	O=C(Nc1ccc(Cl)cc1)Nc1ccc(C[C@@]23CN[C@@H](CO2)C3)cc1 [Example 23, 1-(4-Chlorophenyl)-3-[4-[[(1R,4R)-5-oxa-2-azabicyclo[2.2.1]heptan-4-yl]methyl]phenyl]urea]
0.0219	7.06	CCOc1ccc(C(=O)Nc2ccc(C34CCC(CO3)NC4)cc2)cn1 (racemic) [Example 12, (RS)-6-Ethoxy-N-[4-(5-oxa-2-azabicyclo[2.2.2]octan-4-yl)phenyl]pyridine-3-carboxamide]
0.019	1.22	O=C(Nc1ccc(C23CCC(CO2)NC3)cc1)c1ccc(OCC2CC2)cc1 (racemic) [Example 11, (RS)-4-(Cyclopropylmethoxy)-N-[4-(5-oxa-2-azabicyclo[2.2.2]octan-4-yl)phenyl]benzamide]
0.0054	0.0774	O=C(Nc1ccc([C@]23CN[C@H](CO2)C3)cc1)c1cccc(Cl)c1 [Example 59, 3-Chloro-N-[4-[(1S,4R)-5-oxa-2-azabicyclo[2.2.1]heptan-4-yl]phenyl]benzamide]
0.0046	0.0108	O=C(Nc1ccc(C[C@@]23CN[C@@H](CO2)C3)cc1)Nc1cccc(C(F)(F)F)c1 [Example 44, 1-[4-[[(1R,4R)-5-Oxa-2-azabicyclo[2.2.1]heptan-4-yl]methyl]phenyl]-3-[3-(trifluoromethyl)phenyl]urea]
0.0111	0.328	FC(F)(F)c1ccc(Nc2ccc(C34CCC(CO3)NC4)cc2)nc1 (racemic) [Example 4, (RS)—N-[4-(5-Oxa-2-azabicyclo[2.2.2]octan-4-yl)phenyl]-5-(trifluoromethyl)pyridin-2-amine]
0.0022	0.0551	O=C(Nc1ccc(C[C@@]23CN[C@@H](CO2)C3)cc1)c1cccc(Cl)c1 [Example 39, 3-Chloro-N-[4-[[(1R,4R)-5-oxa-2-azabicyclo[2.2.1]heptan-4-yl]methyl]phenyl]benzamide]
0.112	0.229	O=C(Nc1ccc(C[C@]23CN[C@H](CO2)C3)cc1)c1cccc(Cl)c1 [Example 17, 3-Chloro-N-[4-[[(1S,4S)-5-oxa-2-azabicyclo[2.2.1]heptan-4-yl]methyl]phenyl]benzamide]
> 10	0.854	FC(F)(F)c1cnc(Nc2ccc(C[C@]34CN[C@H](CO3)C4)cc2)cn1 [Example 32, N-[4-[[(1S,4S)-5-Oxa-2-azabicyclo[2.2.1]heptan-4-yl]methyl]phenyl]-5-(trifluoromethyl)pyrazin-2-amine]
0.0471	1.97	FC(F)(F)c1nccc(Nc2ccc(C34CCC(CO3)NC4)cc2)n1 (centres unmarked) [Example 36, N-[4-(5-Oxa-2-azabicyclo[2.2.2]octan-4-yl)phenyl]-2-(trifluoromethyl)pyrimidin-4-amine]
0.153	10	CCc1ncc(C(=O)Nc2ccc(C34CCC(CO3)NC4)cc2)cn1 (racemic) [Example 35, (RS)-2-Ethyl-N-[4-(5-oxa-2-azabicyclo[2.2.2]octan-4-yl)phenyl]pyrimidine-5-carboxamide]
0.0142	0.448	CCOc1ccc(C(=O)Nc2ccc(C[C@@]34CN[C@@H](CO3)C4)cc2)cn1 [Example 46, 6-Ethoxy-N-[4-[[(1R,4R)-5-oxa-2-azabicyclo[2.2.1]heptan-4-yl]methyl]phenyl]pyridine-3-carboxamide]

Structure (SMILES)	Ki (mouse TAAR1) [µM]	Ki (rat TAAR1) [µM]
FC(F)(F)c1nccc(Nc2ccc([C@]34CN[C@H](CO3)C4)cc2)n1 [Example 62, N-[4-[(1S,4R)-5-Oxa-2-azabicyclo[2.2.1]heptan-4-yl]phenyl]-2-(trifluoromethyl)pyrimidin-4-amine]	0.144	0.233
Clc1ccc(Nc2ccc([C@]34CN[C@H](CO3)C4)cc2)nc1 [Example 7, 5-Chloro-N-[4-[(1S,4R)-5-oxa-2-azabicyclo[2.2.1]heptan-4-yl]phenyl]pyridin-2-amine]	0.0414	0.309
